ChEMBL document CHEMBL1275501, “Plasmid-mediated quinolone resistance pump QepA2 in an Escherichia coli isolate from France” (2008)
In brackets after ≈: the same amount, converted by molar mass.

How the values were obtained:
[1] = tested on: Escherichia coli; assay: Antimicrobial activity against azide-resistant Escherichia coli J53 harboring pCTX-M carrying blaCTX-M-15 and pQep plasmid carrying qepA2 gene by disk diffusion method; format: functional
[2] = tested on: Escherichia coli; assay: Antimicrobial activity against Escherichia coli TOP10 harboring pQep plasmid carrying qepA2 gene by disk diffusion method; format: functional
[3] = tested on: Escherichia coli; assay: Antimicrobial activity against Escherichia coli TOP10 by disk diffusion method; format: functional
[4] = tested on: Escherichia coli; assay: Antimicrobial activity against Escherichia coli BicA expressing blaTEM-1, blaCTX-M-15 and qepA2 gene by disk diffusion method
[5] = tested on: Escherichia coli; assay: Antimicrobial activity against azide-resistant Escherichia coli J53 by disk diffusion method; format: functional
[6] = tested on: Escherichia coli; assay: Antimicrobial activity against azide-resistant Escherichia coli J53 harboring pCTX-M plasmid carrying blaCTX-M-15 gene by disk diffusion method; format: functional
[7] = tested on: Escherichia coli; assay: Antimicrobial activity against Escherichia coli TOP10 harboring pQep plasmid carrying qepA2 gene by disk diffusion method in presence of beta-lactamase inhibitor Tazobactam; format: functional
[8] = tested on: Escherichia coli; assay: Antimicrobial activity against azide-resistant Escherichia coli J53 harboring pCTX-M plasmid carrying blaCTX-M-15 gene by disk diffusion method in presence of beta-lactamase inhibitor Tazobactam; format: functional
[9] = tested on: Escherichia coli; assay: Antimicrobial activity against Escherichia coli TOP10 by disk diffusion method in presence of beta-lactamase inhibitor Tazobactam; format: functional
[10] = tested on: Escherichia coli; assay: Antimicrobial activity against azide-resistant Escherichia coli J53 harboring pCTX-M carrying blaCTX-M-15 and pQep plasmid carrying qepA2 gene by disk diffusion method in presence of beta-lactamase inhibitor Tazobactam; format: functional
[11] = tested on: Escherichia coli; assay: Antimicrobial activity against azide-resistant Escherichia coli J53 by disk diffusion method in presence of beta-lactamase inhibitor Tazobactam; format: functional
[12] = tested on: Escherichia coli; assay: Antimicrobial activity against Escherichia coli BicA expressing blaTEM-1, blaCTX-M-15 and qepA2 gene by disk diffusion method in presence of beta-lactamase inhibitor Tazobactam; format: functional

Compound	MIC [1]	MIC [2]	MIC [3]	MIC [4]	MIC [5]	MIC [6]	MIC [7]	MIC [8]	MIC [9]	MIC [10]	MIC [11]	MIC [12]
COc1c(N2C[C@@H]3CCCN[C@@H]3C2)c(F)cc2c(=O)c(C(=O)O)cn(C3CC3)c12 [MOXIFLOXACIN]	0.12 µg/mL (≈ 0.299 µM)	0.01 µg/mL (≈ 0.0249 µM)	0.004 µg/mL (≈ 0.00996 µM)	> 32 µg/mL	–	–	–	–	–	–	–	–
CCn1cc(C(=O)O)c(=O)c2ccc(C)nc21 [NALIDIXIC ACID]	4 µg/mL (≈ 17.2 µM)	1.5 µg/mL (≈ 6.46 µM)	1 µg/mL (≈ 4.31 µM)	> 256 µg/mL	4 µg/mL (≈ 17.2 µM)	4 µg/mL (≈ 17.2 µM)	–	–	–	–	–	–
CCN[C@@H]1C[C@H](N)[C@@H](O[C@H]2OC(CN)=CC[C@H]2N)[C@H](O)[C@H]1O[C@H]1OC[C@](C)(O)[C@H](NC)[C@H]1O [NETILMICIN]	0.12 µg/mL (≈ 0.252 µM)	0.25 µg/mL (≈ 0.526 µM)	0.25 µg/mL (≈ 0.526 µM)	0.5 µg/mL (≈ 1.05 µM)	0.12 µg/mL (≈ 0.252 µM)	0.12 µg/mL (≈ 0.252 µM)	–	–	–	–	–	–
CCn1cc(C(=O)O)c(=O)c2cc(F)c(N3CCNCC3)cc21 [NORFLOXACIN]	1 µg/mL (≈ 3.13 µM)	0.5 µg/mL (≈ 1.57 µM)	0.03 µg/mL (≈ 0.0939 µM)	> 256 µg/mL	0.06 µg/mL (≈ 0.188 µM)	0.06 µg/mL (≈ 0.188 µM)	–	–	–	–	–	–
CC1COc2c(N3CCN(C)CC3)c(F)cc3c(=O)c(C(=O)O)cn1c23 (stereo unspecified) [OFLOXACIN]	–	–	–	> 32 µg/mL	–	–	–	–	–	–	–	–
CCn1cc(C(=O)O)c(=O)c2cc(F)c(N3CCN(C)CC3)cc21 [PEFLOXACIN]	0.06 µg/mL (≈ 0.18 µM)	–	0.03 µg/mL (≈ 0.09 µM)	> 32 µg/mL	0.06 µg/mL (≈ 0.18 µM)	0.06 µg/mL (≈ 0.18 µM)	–	–	–	–	–	–
CCN1CCN(C(=O)N[C@@H](C(=O)N[C@@H]2C(=O)N3[C@@H]2SC(C)(C)[C@@H]3C(=O)O)c2ccccc2)C(=O)C1=O [PIPERACILLIN]	> 256 µg/mL	> 256 µg/mL	2 µg/mL (≈ 3.86 µM)	> 256 µg/mL	2 µg/mL (≈ 3.86 µM)	> 256 µg/mL	2 µg/mL	2 µg/mL	1 µg/mL	2 µg/mL	1 µg/mL	4 µg/mL
CO[C@H]1/C=C/O[C@@]2(C)Oc3c(C)c(O)c4c(O)c(c(/C=N/N5CCN(C)CC5)c(O)c4c3C2=O)NC(=O)/C(C)=C\C=C\[C@H](C)[C@H](O)[C@@H](C)[C@@H](O)[C@@H](C)[C@H](OC(C)=O)[C@@H]1C [RIFAMPIN]	8 µg/mL (≈ 9.72 µM)	16 µg/mL (≈ 19.4 µM)	16 µg/mL (≈ 19.4 µM)	16 µg/mL (≈ 19.4 µM)	8 µg/mL (≈ 9.72 µM)	8 µg/mL (≈ 9.72 µM)	–	–	–	–	–	–
Cc1cc(NS(=O)(=O)c2ccc(N)cc2)no1 [SULFAMETHOXAZOLE]	> 256 µg/mL	> 256 µg/mL	16 µg/mL (≈ 63.2 µM)	> 256 µg/mL	16 µg/mL (≈ 63.2 µM)	16 µg/mL (≈ 63.2 µM)	–	–	–	–	–	–
CN(C)[C@@H]1C(O)=C(C(N)=O)C(=O)[C@@]2(O)C(O)=C3C(=O)c4c(O)cccc4[C@@](C)(O)[C@H]3C[C@@H]12 [TETRACYCLINE]	2 µg/mL (≈ 4.5 µM)	> 256 µg/mL	2 µg/mL (≈ 4.5 µM)	> 256 µg/mL	2 µg/mL (≈ 4.5 µM)	2 µg/mL (≈ 4.5 µM)	–	–	–	–	–	–
CC1(C)S[C@@H]2[C@H](NC(=O)[C@H](C(=O)O)c3ccsc3)C(=O)N2[C@H]1C(=O)O [TICARCILLIN]	> 256 µg/mL	> 256 µg/mL	4 µg/mL (≈ 10.4 µM)	> 256 µg/mL	4 µg/mL (≈ 10.4 µM)	> 256 µg/mL	–	–	–	–	–	–
NC[C@H]1O[C@H](O[C@H]2[C@H](O)[C@@H](O[C@H]3O[C@H](CO)[C@@H](O)[C@H](N)[C@H]3O)[C@H](N)C[C@@H]2N)[C@H](N)C[C@@H]1O [TOBRAMYCIN]	0.25 µg/mL (≈ 0.535 µM)	0.5 µg/mL (≈ 1.07 µM)	0.5 µg/mL (≈ 1.07 µM)	0.5 µg/mL (≈ 1.07 µM)	0.12 µg/mL (≈ 0.257 µM)	0.25 µg/mL (≈ 0.535 µM)	–	–	–	–	–	–
COc1cc(Cc2cnc(N)nc2N)cc(OC)c1OC [TRIMETHOPRIM]	> 256 µg/mL	> 256 µg/mL	0.12 µg/mL (≈ 0.413 µM)	> 256 µg/mL	0.25 µg/mL (≈ 0.861 µM)	0.25 µg/mL (≈ 0.861 µM)	–	–	–	–	–	–
GENTAMICIN	0.12 µg/mL	0.25 µg/mL	0.25 µg/mL	–	0.12 µg/mL	0.12 µg/mL	–	–	–	–	–	–
